{"source": "patent US12667584B2", "about": "“Adenosine analog and its use in regulating the circadian clock” (NATIONAL INSTITUTE OF BIOLOGICAL SCIENCES, BEIJING, priority 2017, dated 2026)", "key": {"[1]": {"test": "HPLC-MASS analysis of CSF after tail vein injection", "format": "in vivo, rat", "details": "15 mg/kg tail vein", "procedure": "HPLC-MASS analysis CSF: 8 W SD rats are bought from Beijing Vital River, housed in individually cage in a temperature- and humidity-controlled SPF facility, with ad libitum access to food and water. The animals were entrained under 12 h light/dark photoperiod for two weeks to synchronize the endogenous circadian clock of the mice to the ambient light-dark cycle, light intensity is about 50˜100 lux. […] Finally, each 450 μl supernatant was collected into a new 1.5 ml tube, dried with SpeedVac and analyzed with HPLC-MASS facility.\nTo test whether cordycepin function in vivo, we firstly tested luciferase signal level by live imaging of Per2:LUC mice after intraperitoneal injection of 15 mg/kg cordycepin or DMSO. […] Prior evaluation the jet-leg cure ability of cordycepin, we detected whether cordycepin and it's prodrug pro-CA03 can penetrate BBB. We injected cordycepin or pro-CA03 via tail vein and time course sampled CSF and analyzed cordycepin pro-CA03 level with HPLC-MASS method. […] Finally we evaluated the jet-leg cure ability of cordycepin, pro-CA03 and Pro-CA04 with mice behavioral experiment. […]"}, "[2]": {"test": "Cordycepin concentration in CSF after intraperitoneal injection", "format": "in vivo", "text": "We measured the cordycepin concentration in cerebrospinal fluid (CSF) after the intraperitoneal (I.P.) injection."}, "Ruvbl2": {"target": "Ruvbl2 (Homo sapiens, UniProt Q9Y230)", "sequence (Q9Y230 whole entry)": "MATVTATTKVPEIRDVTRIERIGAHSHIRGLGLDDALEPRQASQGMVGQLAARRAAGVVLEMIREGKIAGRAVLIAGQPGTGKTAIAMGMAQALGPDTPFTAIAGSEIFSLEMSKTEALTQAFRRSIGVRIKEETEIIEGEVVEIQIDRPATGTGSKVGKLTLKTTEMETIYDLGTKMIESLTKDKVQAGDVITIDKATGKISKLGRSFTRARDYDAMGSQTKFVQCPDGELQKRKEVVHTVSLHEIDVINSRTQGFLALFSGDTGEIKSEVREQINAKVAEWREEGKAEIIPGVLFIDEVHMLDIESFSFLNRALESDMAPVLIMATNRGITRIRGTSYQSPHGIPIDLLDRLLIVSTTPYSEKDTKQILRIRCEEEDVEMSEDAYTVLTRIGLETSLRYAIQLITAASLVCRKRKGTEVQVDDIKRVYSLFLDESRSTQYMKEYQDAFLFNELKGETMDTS", "test": "SPR binding to RUVBL2 protein (Biacore T200)", "details": "purified RUVBL2", "procedure": "Biotinylated Compounds Pull-down, SPR analysis and Immunoprecipitation: The interaction between biotinylated compounds and their target proteins were proceeded as follow. Every 10^8 unsynchronized U2OS cells were collected, homogenized into 2 ml lysis buffer (25 mM MOPS pH7.2, 15 mM EGTA, 15 mM MgCl2, 1 mM DTT, 60 mM β-glycerophosphate, 1 mM Na3VO4, 1 mM NaF, 1 mM phenyl phosphate, Complete Protease Inhibitor Cocktail), and sonicated 6 times for 30 s at 4° C. with a Diagenode bioruptor. After sonication, NP-40 (final 0.5%) was added, incubated 15 min on ice, centrifuged at full speed for 20 min at 4° C. The resultant supernatant was firstly incubated with Pentostatin (final concentration at 5 μg/ml) for 2 h at 4° C. with rotation, and then split into 4 groups. 200 pmol cordycepin, 200 pmol DRB, and DMSO (2 groups, final 0.1%) was added respectively and further incubated for 1 h. […] The eluted protein was analyzed with western blot. The binding affinity of cordycepin against the RUVBL2 protein was measured via SPR technology using a Biacore T200 instrument (GE Healthcare) at room temperature. […] The binding kinetics and binding affinity of cordycepin against the RUVBL2 protein were determined with BIA evaluation software (GE healthcare). […] Immunoprecipitated protein complex was then washed 3 times with IP lysis buffer, boiled and analyzed with western blot. […]"}}, "data": [{"smiles": "Nc1ncnc2c1ncn2[C@@H]1O[C@H](CO)C[C@H]1O", "note": "[Cordycepin, 3′-deoxy-adenosine]", "values": [{"measurement": "time of peak concentration in CSF after injection", "setting": "[1]", "result": 1, "unit": "min"}, {"measurement": "time of detection in the CSF after the injection", "setting": "[2]", "result": "≤ 15", "unit": "min"}, {"measurement": "Kd", "setting": "Ruvbl2", "result": "~0.5", "unit": "µM"}]}]}
